{"source": "patent US4304778A", "about": "“4-Aminoquinazoline derivatives having fungicidal, anti-insect and acaricidal properties” (Sankyo Company Limited, priority 1978, dated 1981)", "key": {"[1]": {"test_system": "final instar larvae of the diamondback moth (Plutella xylostella)", "assay": "Repellent and emergence-inhibition effect on the final instar larvae of diamondback moths", "type": "in vivo", "conditions": "72 hours; for pest or weed control at 500 ppm: Plutella xylostella, read-out: Emergence-inhibition rate (%); for Extent of ingestion: radish leaves dipped in 500 ppm", "description": "(§1) In the following Examples, wettable powders prepared according to the procedures of Example 4 were used, each powder containing 50% by weight of the active compound of this invention.\nLeaves of the Japanese radish (Raphanus sativus) were dipped for 30 seconds into a liquid containing 500 ppm of one of the compounds shown in Table 9. After air-drying the leaves, each leaf was placed into a plastic icecream cup (diameter 8 cm) and 15 final instar larvae of the diamondback moth (Plutella xylostella) were placed into each cup. Each test was conducted in duplicate and the results were averaged."}, "guppies": {"test_system": "guppies", "assay": "Toxicity to guppies", "type": "in vivo", "conditions": "LC50 after 48 hours classified", "method": "In this example the toxicity of the compounds of the invention towards guppies was estimated and is compared with that of corresponding compounds as disclosed and claimed in our co-pending U.S. Application No. 910,117 filed May 30, 1978. The LC50 was determined after 48 hours and the toxicity to guppies was classified into the rankings (i), (ii) and (iii) according to the following classification scheme: […]"}, "Sphaerotheca fuliginea": {"test_system": "Sphaerotheca fuliginea", "assay": "Effect on powdery mildew in cucumbers", "type": "in vivo", "conditions": "cucumber powdery mildew; 500 ppm; 10 days", "method": "as §1\nCucumber seedlings (variety Sagamihanshiro), planted two per 12 cm diameter pot, were used as host plants at the stage when the first leaf was fully grown and open. Each test group of three pots was treated with one of the active compounds shown in Table 5 by spraying an aqueous suspension containing 500 ppm of the active compound onto the plants at the rate of 20 ml per 3 pots. After air-drying the plants, the host plants were inoculated with the microorganism Sphaerotheca fuliginea by brushing already infected cucumber leaves with a small brush and letting the microorganism fall onto the host plants. The inoculated plants were kept in a greenhouse at 24°-26° C. for 10 days. At the end of this time, the percentage diseased area was measured."}, "cockroach larvae": {"test_system": "cockroach larvae", "conditions": "24 hours; 25° C."}, "Phytophthora infestans": {"test_system": "Phytophthora infestans", "type": "in vivo", "conditions": "tomato late blight; 500 ppm; after 5 days; average per leaf"}}}
{"smiles": "CC(C)c1ccccc1OCCN(c1ncnc2ccccc12)C(C)C", "note": "[compound 29, 4-{N-isopropyl-N-[2-(2-isopropylphenoxy)ethyl]amino}quinazoline]", "values": [{"measurement": "pest or weed control at 500 ppm", "setting": "[1]", "result": 60, "unit": "%"}, {"measurement": "Extent of ingestion", "setting": "[1]", "result": "± to +"}]}
{"smiles": "Cc1ccc(OCCNc2ncnc3ccccc23)c(C)c1", "note": "[Compound C, 4-{N-[2-(2,4-dimethylphenoxy)ethyl]amino}quinazoline, reference compound]", "values": [{"measurement": "Toxicity ranking", "setting": "guppies", "result": "iii (all fish dead at 0.5 ppm)"}]}
{"smiles": "Cc1ccccc1OCCN(c1ncnc2ccccc12)C(C)C", "note": "[compound 7, 4-{N-isopropyl-N-[2-(2-methylphenoxy)ethyl]amino}quinazoline]", "values": [{"measurement": "Toxicity ranking", "setting": "guppies", "result": "ii (all fish dead at 10 ppm but alive at 0.5 ppm)"}, {"measurement": "Diseased area (%)", "setting": "Sphaerotheca fuliginea", "result": 0, "unit": "%"}]}
{"smiles": "CCCN(CCOc1ccccc1C(C)C)c1ncnc2ccccc12", "note": "[compound 24, 4-{N-[2-(2-isopropylphenoxy)ethyl]-N-propylamino}quinazoline]", "values": [{"measurement": "Diseased area (%)", "setting": "Sphaerotheca fuliginea", "result": 0, "unit": "%"}]}
{"smiles": "CCCCN(CCOc1ccccc1C(C)C)c1ncnc2ccccc12", "note": "[compound 28, 4{N-butyl-N-[2-(2-isopropylphenoxy)ethyl]amino}quinazoline]", "values": [{"measurement": "Diseased area (%)", "setting": "Sphaerotheca fuliginea", "result": 0, "unit": "%"}]}
{"smiles": "CN(CCOc1cccc(Cl)c1)c1ncnc2ccccc12", "note": "[compound 23, 4-{N-[2-(3-chlorophenoxy)ethyl]-N-methylamino}quinazoline]", "values": [{"measurement": "Mortality rate (%), 0.5mg test cpd/10 cockroaches/bottle", "setting": "cockroach larvae", "result": 85, "unit": "%"}, {"measurement": "Mortality rate (%), 1mg test cpd/10 cockroaches/bottle", "setting": "cockroach larvae", "result": 100, "unit": "%"}]}
{"smiles": "CC(C)=CCN(CCOc1ccccc1C(C)C)c1ncnc2ccccc12", "note": "[compound 53, 4-{N-[2-(2-isopropylphenoxy)ethyl]-N-(3-methyl-2-butenyl)amino}quinazoline]", "values": [{"measurement": "Diseased area (%)", "setting": "Phytophthora infestans", "result": 0, "unit": "%"}, {"measurement": "Toxicity ranking", "setting": "guppies", "result": "ii (all fish dead at 10 ppm but alive at 0.5 ppm)"}]}
{"smiles": "CCCCN(CCOc1cc(C(C)C)ccc1C)c1ncnc2ccccc12", "note": "[compound 49, 4-{N-butyl-N-[2-(5-isopropyl-2-methylphenoxy)ethyl]amino}quinazoline]", "values": [{"measurement": "Diseased area (%)", "setting": "Sphaerotheca fuliginea", "result": 0, "unit": "%"}]}
{"smiles": "CC(C)c1ccccc1OCCN(C)c1ncnc2ccccc12.O=C(O)C(=O)O", "note": "[compound 54, 4-{N-[2-(2-isopropylphenoxy)ethyl]-N-methylamino}quinazoline oxalate]", "values": [{"measurement": "Diseased area (%)", "setting": "Phytophthora infestans", "result": 0, "unit": "%"}]}
{"smiles": "Cc1ccc(OCCN(c2ncnc3ccccc23)C2CCCCC2)c(C)c1", "note": "[compound 37, 4-{N-cyclohexyl-N-[2-(2,4-dimethylphenoxy)ethyl]amino}quinazoline]", "values": [{"measurement": "pest or weed control at 500 ppm", "setting": "[1]", "result": 60, "unit": "%"}, {"measurement": "Extent of ingestion", "setting": "[1]", "result": "± to +"}]}
{"smiles": "CN(CCOc1ccccc1)c1ncnc2ccccc12", "note": "[Compound No. 4, 4-[N-methyl-N-(2-phenoxyethyl)amino]quinazoline]", "values": [{"measurement": "Mortality rate (%), 0.5mg test cpd/10 cockroaches/bottle", "setting": "cockroach larvae", "result": 85, "unit": "%"}, {"measurement": "Mortality rate (%), 1mg test cpd/10 cockroaches/bottle", "setting": "cockroach larvae", "result": 100, "unit": "%"}]}
{"smiles": "Cc1cc(Cl)ccc1OCCN(c1ncnc2ccccc12)C(C)C", "note": "[compound 40, 4-{N-[2-(4-chloro-2-methylphenoxy)ethyl]-N-isopropylamino}quinazoline]", "values": [{"measurement": "Toxicity ranking", "setting": "guppies", "result": "i (all fish alive at 10 ppm)"}, {"measurement": "Diseased area (%)", "setting": "Sphaerotheca fuliginea", "result": 0, "unit": "%"}]}
{"smiles": "Cc1ccc(OCCN(Cc2ccccc2)c2ncnc3ccccc23)c(C)c1", "note": "[compound 36, 4-{N-benzyl-N-[2-(2,4-dimethylphenoxy)ethyl]amino}quinazoline]", "values": [{"measurement": "Toxicity ranking", "setting": "guppies", "result": "ii (all fish dead at 10 ppm but alive at 0.5 ppm)"}, {"measurement": "Diseased area (%)", "setting": "Sphaerotheca fuliginea", "result": 0, "unit": "%"}]}
{"smiles": "CCCN(CCOc1ccc(Cl)cc1C)c1ncnc2ccccc12", "note": "[compound 39, 4-{N-[2-(4-chloro-2-methylphenoxy)ethyl]-N-propylamino}quinazoline]", "values": [{"measurement": "Diseased area (%)", "setting": "Phytophthora infestans", "result": 9, "unit": "%"}, {"measurement": "Mortality rate (%), 0.5mg test cpd/10 cockroaches/bottle", "setting": "cockroach larvae", "result": 85, "unit": "%"}, {"measurement": "Mortality rate (%), 1mg test cpd/10 cockroaches/bottle", "setting": "cockroach larvae", "result": 100, "unit": "%"}, {"measurement": "Toxicity ranking", "setting": "guppies", "result": "ii (all fish dead at 10 ppm but alive at 0.5 ppm)"}, {"measurement": "Diseased area (%)", "setting": "Sphaerotheca fuliginea", "result": 0, "unit": "%"}]}
{"smiles": "CCCN(CCOc1ccccc1C)c1ncnc2ccccc12", "note": "[compound 6, 4-{N-[2-(2-methylphenoxy)ethyl]-N-propylamino}quinazoline]", "values": [{"measurement": "Diseased area (%)", "setting": "Phytophthora infestans", "result": 0, "unit": "%"}, {"measurement": "Diseased area (%)", "setting": "Sphaerotheca fuliginea", "result": 0, "unit": "%"}]}
{"smiles": "Cc1cc(Cl)ccc1OCCNc1ncnc2ccccc12", "note": "[Compound D, 4-{N-[2-(4-chloro-2-methylphenoxy)ethyl]amino}quinazoline, reference compound]", "values": [{"measurement": "Toxicity ranking", "setting": "guppies", "result": "iii (all fish dead at 0.5 ppm)"}]}
{"smiles": "CCN(CCOc1ccccc1)c1ncnc2ccccc12", "note": "[compound 5, 4-[N-ethyl-N-(2-phenoxyethyl)amino]quinazoline]", "values": [{"measurement": "Diseased area (%)", "setting": "Sphaerotheca fuliginea", "result": 6, "unit": "%"}]}
{"smiles": "CN(CCOc1ccccc1Cl)c1ncnc2ccccc12", "note": "[compound 11, 4-{N-[2-(2-chlorophenoxy)ethyl]-N-methylamino}quinazolone]", "values": [{"measurement": "Diseased area (%)", "setting": "Phytophthora infestans", "result": 3, "unit": "%"}]}
{"smiles": "CCCCN(CCOc1ccc(C)cc1C)c1ncnc2ccccc12", "note": "[compound 35, 4-{N-butyl-N-[2-(2,4-dimethylphenoxy)ethyl]amino}quinazoline]", "values": [{"measurement": "Toxicity ranking", "setting": "guppies", "result": "ii (all fish dead at 10 ppm but alive at 0.5 ppm)"}, {"measurement": "Diseased area (%)", "setting": "Sphaerotheca fuliginea", "result": 0, "unit": "%"}]}
{"smiles": "Cc1cc(Cl)ccc1OCCN(Cc1ccccc1)c1ncnc2ccccc12", "note": "[compound 42, 4-{N-benzyl-N-[2-(4-chloro-2-methylphenoxy)ethyl]amino}quinazoline]", "values": [{"measurement": "pest or weed control at 500 ppm", "setting": "[1]", "result": 60, "unit": "%"}, {"measurement": "Extent of ingestion", "setting": "[1]", "result": "± to +"}]}
{"smiles": "CCC(C)c1ccccc1OCCN(C)c1ncnc2ccccc12", "note": "(stereo not shown) [compound 12, 4-{N-methyl-N-[2-(2-sec-butylphenoxy)ethyl]amino}quinazoline]", "values": [{"measurement": "Diseased area (%)", "setting": "Phytophthora infestans", "result": 15, "unit": "%"}, {"measurement": "Mortality rate (%), 0.5mg test cpd/10 cockroaches/bottle", "setting": "cockroach larvae", "result": 90, "unit": "%"}, {"measurement": "Mortality rate (%), 1mg test cpd/10 cockroaches/bottle", "setting": "cockroach larvae", "result": 100, "unit": "%"}]}
{"smiles": "CCCN(CCOc1cc(C(C)C)ccc1C)c1ncnc2ccccc12", "note": "[compound 48, 4-{N-[2-(5-isopropyl-2-methylphenoxy)ethyl]-N-propylamino}quinazoline]", "values": [{"measurement": "Diseased area (%)", "setting": "Sphaerotheca fuliginea", "result": 0, "unit": "%"}]}
{"smiles": "Cc1ccccc1OCCN(Cc1ccccc1)c1ncnc2ccccc12", "note": "[compound 3, 4-{N-benzyl-N-[2-(2-methylphenoxy)ethyl]amino}quinazoline]", "values": [{"measurement": "Diseased area (%)", "setting": "Phytophthora infestans", "result": 11, "unit": "%"}, {"measurement": "Toxicity ranking", "setting": "guppies", "result": "i (all fish alive at 10 ppm)"}, {"measurement": "Diseased area (%)", "setting": "Sphaerotheca fuliginea", "result": 0, "unit": "%"}]}
{"smiles": "CCN(CCOc1ccccc1C(C)C)c1ncnc2ccccc12", "note": "[compound 27, 4-{N-ethyl-N-[2-(2-isopropylphenoxy)ethyl]amino}quinazoline]", "values": [{"measurement": "Diseased area (%)", "setting": "Sphaerotheca fuliginea", "result": 0, "unit": "%"}]}
{"smiles": "CC(C)c1ccccc1OCCN(c1ncnc2ccccc12)C1CCCCC1", "note": "[compound 46, 4-{N-cyclohexyl-N-[2-(2-isopropylphenoxy)ethyl]amino}quinazoline]", "values": [{"measurement": "Diseased area (%)", "setting": "Phytophthora infestans", "result": 0, "unit": "%"}]}
{"smiles": "COc1ccccc1OCCN(C)c1ncnc2ccccc12", "note": "[compound 16, 4-{N-[2-(2-methoxyphenoxy)ethyl]-N-methylamino}quinazoline]", "values": [{"measurement": "Diseased area (%)", "setting": "Phytophthora infestans", "result": 13, "unit": "%"}]}
{"smiles": "Cc1ccccc1OCCNc1ncnc2ccccc12", "note": "[Compound A, 4-{N-[2-(2-methylphenoxy)ethyl]amino}quinazoline, reference compound]", "values": [{"measurement": "Toxicity ranking", "setting": "guppies", "result": "iii (all fish dead at 0.5 ppm)"}]}
{"smiles": "CCCN(CCOc1ccc(C)cc1C)c1ncnc2ccccc12", "note": "[compound 33, 4-{N-[2-(2,4-dimethylphenoxy)ethyl]-N-propylamino}quinazoline]", "values": [{"measurement": "Mortality rate (%), 0.5mg test cpd/10 cockroaches/bottle", "setting": "cockroach larvae", "result": 90, "unit": "%"}, {"measurement": "Mortality rate (%), 1mg test cpd/10 cockroaches/bottle", "setting": "cockroach larvae", "result": 100, "unit": "%"}, {"measurement": "Diseased area (%)", "setting": "Sphaerotheca fuliginea", "result": 0, "unit": "%"}]}
{"smiles": "C=CCN(CCOc1ccccc1C)c1ncnc2ccccc12", "note": "[Compound No. 8, 4-{N-allyl-N-[2-(2-methylphenoxy)ethyl]amino}quinazoline]", "values": [{"measurement": "Diseased area (%)", "setting": "Phytophthora infestans", "result": 5, "unit": "%"}, {"measurement": "Toxicity ranking", "setting": "guppies", "result": "ii (all fish dead at 10 ppm but alive at 0.5 ppm)"}, {"measurement": "Diseased area (%)", "setting": "Sphaerotheca fuliginea", "result": 0, "unit": "%"}]}
{"smiles": "Cc1cccc(OCCN(C)c2ncnc3ccccc23)c1", "note": "[compound 20, 4-{N-methyl-N-[2-(3-methylphenoxy)ethyl]amino}quinazoline]", "values": [{"measurement": "Mortality rate (%), 0.5mg test cpd/10 cockroaches/bottle", "setting": "cockroach larvae", "result": 90, "unit": "%"}, {"measurement": "Mortality rate (%), 1mg test cpd/10 cockroaches/bottle", "setting": "cockroach larvae", "result": 100, "unit": "%"}]}
{"smiles": "CC(C)c1ccccc1OCCNc1ncnc2ccccc12", "note": "[Compound B, 4-{N-[2-(2-isopropylphenoxy)ethyl]amino}quinazoline, reference compound]", "values": [{"measurement": "Toxicity ranking", "setting": "guppies", "result": "iii (all fish dead at 0.5 ppm)"}]}
